Some results are limits rather than exact numbers.

One data set concerns THP-1. As to the kind of experiment: Antiinflammatory activity against human THP-1 cells assessed as inhibition of LPS induced IL-23 production. Type of data set: functional, cell-based.
The test system of another data set is PAD. As to the kind of experiment: Induction of PAD activity against human A549 cells. It is filed as toxicity, cell-based.
Data set [1] can be described thus: Clearance in rat at 1 mg/kg, iv. It is filed as ADME, organism-based. The settings on record: in vivo.
Data set [2] can be described thus: Antiinflammatory activity against human dendritic cells assessed as inhibition of LPS induced IL-23 production. Type of data set: functional, cell-based. The note with it: Dendritic cell.
Data set [3] deals with T1, Interleukin-1 receptor-associated kinase 4 (Homo sapiens, UniProt Q9NWZ3).
T1 sequence (Q9NWZ3 whole entry): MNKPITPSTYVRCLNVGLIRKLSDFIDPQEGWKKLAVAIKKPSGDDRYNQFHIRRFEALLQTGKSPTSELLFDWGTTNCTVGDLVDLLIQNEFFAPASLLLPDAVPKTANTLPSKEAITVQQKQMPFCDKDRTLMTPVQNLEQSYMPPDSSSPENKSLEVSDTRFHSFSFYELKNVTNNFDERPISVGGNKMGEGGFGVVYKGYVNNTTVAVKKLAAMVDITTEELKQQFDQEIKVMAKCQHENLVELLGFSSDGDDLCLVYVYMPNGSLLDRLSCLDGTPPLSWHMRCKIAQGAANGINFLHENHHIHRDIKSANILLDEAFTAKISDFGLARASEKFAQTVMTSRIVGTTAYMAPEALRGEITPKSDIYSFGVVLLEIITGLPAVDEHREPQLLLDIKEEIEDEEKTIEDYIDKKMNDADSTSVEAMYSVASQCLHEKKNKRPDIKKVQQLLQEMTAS
Kind of data set: Inhibition of IRAK4 (unknown origin).

Data set [4] is described as follows: Oral bioavailability in rat at 5 mg/kg. Type of data set: ADME, organism-based. The note with it: in vivo.

With `NC(=O)[C@@H]1[C@H](Nc2nc(Nc3cc(F)cc(C(=O)N4CCCC4)c3)nc3ccsc23)[C@H]2C=C[C@@H]1C2`, the IC50 with THP-1 stood at 60 nM; in the data set with PAD, 1800 nM; in data set [2], 50 nM; in data set [3], 2 nM. Further, the clearance in data set [1] is 141 mL/min/kg.

Take `NC(=O)[C@@H]1[C@H](Nc2nc(Nc3ccnc(N4CCOCC4)c3)nc3ccsc23)[C@H]2C=C[C@@H]1C2`: the bioavailability in data set [4] came to 12%. Moreover, the IC50 in the data set with THP-1 was determined as 80 nM; in the data set on PAD, 2700 nM; in data set [2], 100 nM; in data set [3], 10 nM. The compound also came in with a clearance in data set [1] of 132 mL/min/kg.

With `NC(=O)[C@@H]1[C@H](Nc2nc(Nc3ccc(C(=O)N4CCCC4)cc3)nc3ccsc23)[C@H]2C=C[C@@H]1C2`, the IC50 was found to be 70 nM in the data set with THP-1, 560 nM with PAD, 40 nM in data set [2] and 10 nM in data set [3].

For the compound `NC(=O)[C@@H]1[C@H](Nc2nc(Nc3ccc(F)c(C(=O)N4CCCC4)c3)nc3ccsc23)[C@H]2C=C[C@@H]1C2`, the IC50 in the data set on THP-1 is 270 nM; in the data set with PAD it was 8000 nM; in data set [2], 80 nM; in data set [3] it was 3 nM. This compound displayed a clearance in data set [1] of 92 mL/min/kg.

As for `Cn1ncc2nc(Nc3cccc(C(=O)N4CCCC4)c3)nc(N[C@H]3[C@@H](C(N)=O)[C@@H]4C=C[C@H]3C4)c21`, the IC50 was found to be 900 nM with THP-1, 10000 nM with PAD and 4 nM in data set [3].

Take `Cc1c[nH]c2nc(Nc3cccc(C(=O)N4CCCC4)c3)nc(N[C@H]3[C@@H](C(N)=O)[C@@H]4C=C[C@H]3C4)c12`: the IC50 in the data set with THP-1 was 20 nM; with PAD it was 80 nM; in data set [3], 8 nM.

In the case of `NC(=O)[C@@H]1[C@H](Nc2nc(Nc3cccc(C(=O)N4CCCC4)c3)nc3ccccc23)[C@H]2C=C[C@@H]1C2`, the IC50 is 250 nM in the data set on THP-1, 7500 nM in the data set on PAD, 490 nM in data set [2] and 5 nM in data set [3]. This compound also gave a clearance in data set [1] of 102 mL/min/kg.

On to `CC(C)n1ccc2nc(Nc3ccc4cnn(C(C)C)c4c3)nc(N[C@H]3[C@@H](C(N)=O)[C@@H]4C=C[C@H]3C4)c21`, for which the IC50 with THP-1 turned out to be 420 nM; in the data set on PAD it was 2600 nM; in data set [2], 920 nM; in data set [3] it was 2.7 nM.

`NC(=O)[C@@H]1[C@H](Nc2nc(Nc3cccc(C(=O)N4CCC(F)C4)c3)nc3ccsc23)[C@H]2C=C[C@@H]1C2` (stereo partly drawn): in data set [4], the bioavailability stood at 3%. Also, the IC50 with THP-1 came out at 90 nM; with PAD, 2700 nM; in data set [2], 40 nM; in data set [3], 15 nM. For the same compound, the clearance in data set [1] was found to be 82 mL/min/kg.

With `CN1CCN(c2cc(Nc3nc(N[C@H]4[C@@H](C(N)=O)[C@@H]5C=C[C@H]4C5)c4sccc4n3)ccc2F)CC1`, the values for the IC50 (with THP-1; in the data set with PAD; in data set [3]) were 510 nM, 2000 nM and 50 nM, respectively.

Regarding `NC(=O)[C@@H]1[C@H](Nc2nc(Nc3ccnc(N4CCCC4)c3)nc3ccsc23)[C@H]2C=C[C@@H]1C2`, the IC50 stood at 200 nM with THP-1, 2600 nM in the data set on PAD and 206 nM in data set [3].

For the compound `NC(=O)[C@@H]1[C@H](Nc2nc(Nc3ccc(F)c(N4CCOCC4)c3)nc3ccsc23)[C@H]2C=C[C@@H]1C2`, in data set [4], the bioavailability was found to be 23%. The half-inhibitory concentration (IC50) came out at 240 nM in the data set with THP-1, 2500 nM in the data set with PAD and 95 nM in data set [3]. In data set [1], this compound registered a clearance of 52 mL/min/kg.

Regarding `NC(=O)[C@@H]1[C@H](Nc2nc(Nc3cccc(C(=O)N4CCCC4)c3)nc3cc[nH]c23)[C@H]2C=C[C@@H]1C2`, the IC50 in the data set on THP-1 was 3800 nM; with PAD it was > 100000 nM; in data set [2], 1400 nM; in data set [3], 6 nM.

Regarding `NC(=O)[C@@H]1[C@H](Nc2nc(Nc3ccc(C(=O)N4CCOCC4)cc3)nc3ccsc23)[C@H]2C=C[C@@H]1C2`, the IC50 in the data set with THP-1 was 70 nM; in the data set with PAD, 1100 nM; in data set [2], 30 nM; in data set [3], 14 nM.

On to `CN1CCN(c2cc(F)cc(Nc3nc(N[C@H]4[C@@H](C(N)=O)[C@@H]5C=C[C@H]4C5)c4sccc4n3)c2)CC1`, for which the bioavailability in data set [4] is 16%. Moreover, the IC50 worked out at 80 nM with THP-1, 1500 nM with PAD, 100 nM in data set [2] and 12 nM in data set [3]. In addition, in data set [1], the clearance is 99 mL/min/kg.

Take `NC(=O)[C@H]1CCC[C@H]1Nc1nc(Nc2cccc(C(=O)N3CCCC3)c2)nc2ccsc12`: the IC50 in the data set with THP-1 is 260 nM; in the data set on PAD, > 100000 nM; in data set [2], 990 nM; in data set [3], 17 nM. In data set [1], this compound registered a clearance of 104 mL/min/kg.

As for `NC(=O)[C@@H]1[C@H](Nc2nc(Nc3cccc(C(=O)N4CCCC4)c3)nc3ncsc23)[C@H]2C=C[C@@H]1C2`, the IC50 in the data set with THP-1 stood at 280 nM; with PAD it was 4000 nM; in data set [2], 7300 nM; in data set [3] it was 3 nM. The compound further displayed a clearance in data set [1] of 105 mL/min/kg.

Consider `O=C(c1cccc(Nc2nc(NC3C[C@@H]4CC[C@H]3C4)c3sccc3n2)c1)N1CCC(F)C1` (stereo partly drawn), for which the results for the IC50 (in the data set with THP-1; with PAD; in data set [3]) were 4700 nM, 3500 nM and 98 nM, respectively. In data set [1], this compound gave a clearance of 143 mL/min/kg.

For `CN1CCN(c2cc(Nc3nc(N[C@H]4[C@@H](C(N)=O)[C@@H]5C=C[C@H]4C5)c4sccc4n3)ccn2)CC1`, in data set [4], the bioavailability is < 1%. Besides, the IC50 is 80 nM in the data set on THP-1, 1700 nM with PAD, 60 nM in data set [2] and 7 nM in data set [3]. The compound also came in with a clearance in data set [1] of 242 mL/min/kg.

For the compound `NC(=O)[C@@H]1[C@H](Nc2nc(Nc3cccc(C(=O)N4CCCC4)c3)nc3[nH]ccc23)[C@H]2C=C[C@@H]1C2`, the IC50 was determined as 40 nM in the data set on THP-1, 420 nM with PAD, 50 nM in data set [2] and 11 nM in data set [3]. In data set [1], this compound displayed a clearance of 100 mL/min/kg.

Take `NC(=O)[C@@H]1[C@H](Nc2nc(Nc3cccc(C(=O)N4CCCC4)c3)nc3ccoc23)[C@H]2C=C[C@@H]1C2`: the IC50 in the data set on THP-1 amounted to 220 nM; with PAD, 5800 nM; in data set [2] it was 90 nM; in data set [3], 3 nM. Further, in data set [1], the clearance is 101 mL/min/kg.

For the compound `NC(=O)[C@@H]1[C@H](Nc2nc(Nc3cccc(C(=O)N4CCCC4)c3)nc3[nH]ncc23)[C@H]2C=C[C@@H]1C2`, the IC50 with THP-1 came out at 290 nM; with PAD, 5800 nM; in data set [2], 480 nM; in data set [3], 4 nM. Moreover, the clearance in data set [1] stood at 124 mL/min/kg.

With `CC(C)n1ncc2ccc(Nc3nc(N[C@H]4[C@@H](C(N)=O)[C@@H]5C=C[C@H]4C5)c4c(ccn4C)n3)cc21`, the IC50 in the data set on THP-1 worked out at 500 nM; in the data set on PAD, 3300 nM; in data set [2], 1300 nM; in data set [3], 4.1 nM.

`NC(=O)[C@@H]1[C@H](Nc2nc(Nc3ccc(OCCN4CCCC4)cc3)nc3ccsc23)[C@H]2C=C[C@@H]1C2`: the IC50 was 50 nM in the data set with THP-1, 610 nM with PAD, 190 nM in data set [2] and 49 nM in data set [3].

With `NC(=O)[C@@H]1[C@H](Nc2nc(Nc3cccc(C(=O)N4CCOCC4)c3)nc3ccsc23)[C@H]2C=C[C@@H]1C2`, the IC50 in the data set with THP-1 was 150 nM; with PAD, 4900 nM; in data set [2], 80 nM; in data set [3], 6 nM. In addition, the clearance in data set [1] was determined as 113 mL/min/kg.

For `NC(=O)c1ccccc1Nc1nc(Nc2cccc(C(=O)N3CCCC3)c2)nc2ccsc12`, the IC50 in the data set on THP-1 was 240 nM; in the data set with PAD, 6400 nM; in data set [2] it was 1500 nM; in data set [3], 19 nM. The clearance in data set [1] amounted to 56 mL/min/kg.

Turning to `NC(=O)[C@@H]1[C@H](Nc2nc(Nc3cc(C(=O)N4CCCC4)ccc3F)nc3ccsc23)[C@H]2C=C[C@@H]1C2`, the IC50 in the data set with THP-1 was 11000 nM; in the data set with PAD it was 14000 nM; in data set [3] it was 711 nM.

In the case of `NC(=O)[C@@H]1[C@H](Nc2nc(Nc3cc(F)cc(N4CCOCC4)c3)nc3ncsc23)[C@H]2C=C[C@@H]1C2`, the IC50 came out at 2600 nM in the data set on THP-1, 7500 nM in the data set with PAD and 18 nM in data set [3].

Regarding `Cc1n[nH]c2nc(Nc3cc(F)cc(N4CCOCC4)c3)nc(N[C@H]3[C@@H](C(N)=O)[C@@H]4C=C[C@H]3C4)c12`, the bioavailability in data set [4] is 7%. The IC50 with THP-1 is 37 nM; in the data set with PAD it was 260 nM; in data set [3], 5 nM. Moreover, the clearance in data set [1] amounted to 47 mL/min/kg.

As to `NC(=O)[C@@H]1[C@H](Nc2nc(Nc3cccc(C(=O)N4CCCC4)c3)nc3[nH]cnc23)[C@H]2C=C[C@@H]1C2`, the IC50 with THP-1 came out at 200 nM; in the data set on PAD it was 4000 nM; in data set [2], 200 nM; in data set [3], 5 nM. In data set [1], this compound yielded a clearance of 180 mL/min/kg.

For `NC(=O)[C@@H]1[C@H](Nc2nc(Nc3cccc(C(=O)N4CCCC4)c3)nc3cn[nH]c23)[C@H]2C=C[C@@H]1C2`, the IC50 in the data set on THP-1 is 9400 nM; in the data set with PAD, > 100000 nM; in data set [3] it was 17 nM.

For the origin of these results see ChEMBL document CHEMBL5104140, “Bicyclic pyrimidine compounds as potent IRAK4 inhibitors” (Bioorg Med Chem Lett, 2022).
